Results reported in US8420655B2, “Benzimidazole inhibitors of leukotriene production” (Boehringer Ingelheim International GmbH, priority 2009, dated 2013).

molecular target: T1, recombinant human FLAP protein (Homo sapiens, UniProt P20292); assay: FLAP binding assay, displacement of iodinated (125I) FLAP inhibitor, Scintillation Proximity Assay format; settings: [125I]L-691,831 probe, membrane protein from sf9 cells; read-out: hFLAP binding IC50
T1 construct: made in house; host or cells: Sf9 insect cells (membrane fraction, 100,000 x g pellet)
T1 sequence (P20292 1-161): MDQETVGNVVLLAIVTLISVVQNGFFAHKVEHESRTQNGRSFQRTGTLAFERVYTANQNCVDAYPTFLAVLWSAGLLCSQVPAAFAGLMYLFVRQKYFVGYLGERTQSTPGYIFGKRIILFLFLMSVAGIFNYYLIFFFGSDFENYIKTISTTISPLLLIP
Procedure: Compounds are assessed for the ability to bind to FLAP in a binding assay that measures compound-specific displacement of an iodinated (^125I) FLAP inhibitor via a Scintillation Proximity Assay format (adapted from S. Charleson et al., Mol. Pharmacol., 1992, 41, 873-879).
Cell pellets produced from sf9 insect cells expressing recombinant human FLAP protein are resuspended in buffer A [15 mM Tris-HCl (pH 7.5), 2 mM MgCl2, 0.3 mM EDTA, 1 mM PMSF]. The cells are lysed with a Dounce homogenizer and the material is centrifuged at 10,000×g for 10 minutes. The supernatant is then collected and centrifuged at 100,000×g for 60 minutes. To prepare membrane protein for an assay, an aliquot of the 100,000×g pellet is resuspended in 1 ml of buffer A, Dounce homogenized, and finally subjected to polytron mixing (30 seconds). Membrane protein (25 μl, 5 μg) is mixed with WGA SPA beads (Amersham) and stirred for 1 h. To an assay plate (Perkin Elmer FlexiPlate) is added 25 μl of test compound prepared in Binding buffer [100 mM Tris (pH 7.5), 140 mM NaCl, 5% glycerol, 2 mM EDTA, 0.5 mM TCEP, 0.05% Tween 20], 25 μl of [^125I]L-691,831 (an iodinated analog of MK-591, Charleson et al. Mol. Pharmacol., 41, 873-879, 1992) and finally 50 μl of the bead/protein mixture. (final concentrations: beads, 200 μg/well; protein, 5 μg/well; [^125I] probe, 0 08 nM/well (17 nCi/well). The plates are shaken for 2 h before reading on a Microbeta plate reader. Non-specific binding is determined by the addition of 10 μM cold L-691,831 compound.

Row | IC50 | Structure (SMILES)
1 | 6.9 nM | Cc1ncnn1-c1ccc(Cl)cc1-c1nc2cc(-c3cnc(N)nc3)ccc2n1C(C)(C)C [5-{1-tert-butyl-2-[5-chloro-2-(5-methyl-1,2,4-triazol-1-yl)-phenyl]-1H-benzimidazol-5-yl}-pyrimidin-2-ylamine]
2 | 1.6 nM | Cc1ncn(-c2ccccc2-c2nc3cc(-c4cnc(N)nc4)ccc3n2C(C)(C)C)n1 [5-{1-tert-Butyl-2-[2-(3-methyl-1,2,4-triazol-1-yl)-phenyl]-1H-benzimidazol-5-yl}-pyrimidin-2-ylamine]
3 | 2.5 nM | Cc1nc(C)n(-c2ccc(C#N)cc2-c2nc3cc(-c4cnc(N)nc4)ccc3n2C(C)(C)C)n1 [3-[5-(2-Amino-pyrimidin-5-yl)-1-tert-butyl-1H-benzoimidazol-2-yl]-4-(3,5-dimethyl-[1,2,4]triazol-1-yl)-benzonitrile]
4 | 1.5 nM | COc1ccc(-n2ncnc2C)c(-c2nc3cc(-c4cnc(N)nc4)ccc3n2C(C)(C)C)c1 [5-{1-tert-Butyl-2-[5-methoxy-2-(5-methyl-1,2,4-triazol-1-yl)-phenyl]-1H-benzimidazol-5-yl}-pyrimidin-2-ylamine]
5 | 0.71 nM | Cc1ccn(-c2ccc(Cl)cc2-c2nc3cc(-c4cnc(N)nc4)ccc3n2C(C)(C)C)n1 [5-{1-tert-Butyl-2-[5-chloro-2-(3-methyl-pyrazol-1-yl)-phenyl]-1H-benzimidazol-5-yl}-pyrimidin-2-ylamine]
6 | 3.3 nM | Cc1ncnn1-c1ccccc1-c1nc2cc(-c3cnc(N)nc3)ccc2n1C(C)(C)C [5-{1-tert-Butyl-2-[2-(5-methyl-1,2,4-triazol-1-yl)-phenyl]-1H-benzimidazol-5-yl}-pyrimidin-2-ylamine]
7 | 4.2 nM | CC(C)(C)n1c(-c2ccccc2-c2ncn(CC#N)n2)nc2cc(-c3cnc(N)nc3)ccc21 [(3-{2-[5-(2-Amino-pyrimidin-5-yl)-1-tert-butyl-1H-benzoimidazol-2-yl]-phenyl}-[1,2,4]triazol-1-yl)-acetonitrile]
8 | 3 nM | Cc1ncn(-c2ccc(C#N)cc2-c2nc3cc(-c4cnc(N)nc4)ccc3n2C(C)(C)C)n1 [3-[5-(2-Amino-pyrimidin-5-yl)-1-tert-butyl-1H-benzimidazol-2-yl]-4-(3-methyl-1,2,4-triazol-1-yl)-benzonitrile]
9 | 2.7 nM | CCOC(=O)C(C)(C)COc1ccc(-c2nc3cc(-c4cnc(N)nc4)ccc3n2C(C)(C)C)c(-n2cncn2)c1 [3-{4-[5-(2-Amino-pyrimidin-5-yl)-1-tert-butyl-1H-benzoimidazol-2-yl]-3-[1,2,4]triazol-1-yl-phenoxy}-2,2-dimethyl-propionic acid ethyl ester]
10 | 1.8 nM | Cc1ccn(-c2ccc(C#N)cc2-c2nc3cc(-c4cnc(N)nc4)ccc3n2C(C)(C)C)n1 [3-[5-(2-Amino-pyrimidin-5-yl)-1-tert-butyl-1H-benzoimidazol-2-yl]-4-(3-methyl-pyrazol-1-yl)-benzonitrile]
11 | 2.4 nM | CC(C)(C)n1c(-c2cc(C(F)(F)F)ccc2-n2cncn2)nc2cc(-c3cnc(N)nc3)ccc21
12 | 15.9 nM | COC(=O)c1ncn(-c2ccc(C#N)cc2-c2nc3cc(-c4cnc(N)nc4)ccc3n2C(C)(C)C)n1 [1-{2-[5-(2-Amino-pyrimidin-5-yl)-1-tert-butyl-1H-benzoimidazol-2-yl]-4-cyano-phenyl}-1H-[1,2,4]triazole-3-carboxylic acid methyl ester]
13 | 1.3 nM | Cn1nnc(-c2ccccc2-c2nc3cc(-c4cnc(N)nc4)ccc3n2C(C)(C)C)n1 [5-{1-tert-Butyl-2-[2-(2-methyl-2H-tetrazol-5-yl)-phenyl]-1H-benzimidazol-5-yl}-pyrimidin-2-ylamine]
14 | 28 nM | CCCCC/C(=C\C(=O)OC)c1ccc(-n2cncn2)c(-c2nc3cc(-c4cnc(N)nc4)ccc3n2C(C)(C)C)c1 [(E)-3-{3-[5-(2-Amino-pyrimidin-5-yl)-1-tert-butyl-1H-benzoimidazol-2-yl]-4-[1,2,4]triazol-1-yl-phenyl}-oct-2-enoic acid methyl ester]
15 | 1.7 nM | Cc1ccc(-n2cnc(C)n2)c(-c2nc3cc(-c4cnc(N)nc4)ccc3n2C(C)(C)C)c1
16 | 2.4 nM | Cn1cc(-c2ccc(-n3cncn3)c(-c3nc4cc(-c5cnc(N)nc5)ccc4n3C(C)(C)C)c2)cn1 [5-{1-tert-Butyl-2-[5-(1-methyl-1H-pyrazol-4-yl)-2-[1,2,4]triazol-1-yl-phenyl]-1H-benzoimidazol-5-yl}-pyrimidin-2-ylamine]
17 | 6.1 nM | Cn1ncnc1-c1ccccc1-c1nc2cc(-c3cnc(N)nc3)ccc2n1C(C)(C)C [5-{1-tert-Butyl-2-[2-(2-methyl-2H-1,2,4-triazol-3-yl)-phenyl]-1H-benzimidazol-5-yl}-pyrimidin-2-ylamine]
18 | 1.6 nM | Cn1ncnc1-c1ccc(F)cc1-c1nc2cc(-c3cnc(N)nc3)ccc2n1C(C)(C)C [5-{1-tert-Butyl-2-[5-fluoro-2-(2-methyl-2H-1,2,4-triazol-3-yl)-phenyl]-1H-benzimidazol-5-yl}-pyrimidin-2-ylamine]
19 | 5.2 nM | COC(=O)c1cc(-c2ccc(-n3cncn3)c(-c3nc4cc(-c5cnc(N)nc5)ccc4n3C(C)(C)C)c2)cs1 [4-{3-[5-(2-Amino-pyrimidin-5-yl)-1-tert-butyl-1H-benzoimidazol-2-yl]-4-[1,2,4]triazol-1-yl-phenyl}-thiophene-2-carboxylic acid methyl ester]
20 | 36.8 nM | CC(C)(C)n1c(-c2cc(S(C)(=O)=O)ccc2-n2cncn2)nc2cc(-c3cnc(N)nc3)ccc21 [5-[1-tert-Butyl-2-(5-methanesulfonyl-2-[1,2,4]triazol-1-yl-phenyl)-1H-benzoimidazol-5-yl]-pyrimidin-2-ylamine]
21 | 4 nM | CC(C)(COc1ccc(-c2nc3cc(-c4cnc(N)nc4)ccc3n2C(C)(C)C)c(-n2cncn2)c1)C(=O)O [3-{4-[5-(2-Amino-pyrimidin-5-yl)-1-tert-butyl-1H-benzoimidazol-2-yl]-3-[1,2,4]triazol-1-yl-phenoxy}-2,2-dimethyl-propionic acid]
22 | 10.6 nM | CC(C)(C)n1c(-c2ccc(OC3CCOC3)cc2-n2cncn2)nc2cc(-c3cnc(N)nc3)ccc21 (centres unmarked) [5-{1-tert-Butyl-2-[4-(tetrahydro-furan-3-yloxy)-2-1,2,4-triazol-1-yl-phenyl]-1H-benzimidazol-5-yl}-pyrimidin-2-ylamine]
23 | 4.6 nM | CC(C)(C)n1c(-c2cc(-c3nn[nH]n3)ccc2-n2cncn2)nc2cc(-c3cnc(N)nc3)ccc21 [5-{1-tert-Butyl-2-[5-(2H-tetrazol-5-yl)-2-[1,2,4]triazol-1-yl-phenyl]-1H-benzoimidazol-5-yl}-pyrimidin-2-ylamine]
24 | 2.4 nM | CCc1ccc(-n2cncn2)c(-c2nc3cc(-c4cnc(N)nc4)ccc3n2C(C)(C)C)c1 [5-[1-tert-Butyl-2-(5-ethyl-2-1,2,4-triazol-1-yl-phenyl)-1H-benzimidazol-5-yl]-pyrimidin-2-ylamine]
25 | 10 nM | CCOCc1ccc(-n2cncn2)c(-c2nc3cc(-c4cnc(N)nc4)ccc3n2C(C)(C)C)c1 [5-[1-tert-Butyl-2-(5-ethoxymethyl-2-[1,2,4]triazol-1-yl-phenyl)-1H-benzoimidazol-5-yl]-pyrimidin-2-ylamine]

Row | Structure (SMILES) | IC50
26 | CCN(CC)C(=O)Oc1ccc(-n2cncn2)c(-c2nc3cc(-c4cnc(N)nc4)ccc3n2C(C)(C)C)c1 [Diethyl-carbamic acid 3-[5-(2-amino-pyrimidin-5-yl)-1-tert-butyl-1H-benzimidazol-2-yl]-4-1,2,4-triazol-1-yl-phenyl ester] | 8.8 nM
